The subject of one assay is platelet aggregation. In words: Monkey platelet aggregation inhibitory test after oral administration (ex vivo, ADP-induced, PRP). The class given is in vivo. The note with it: male crab-eating monkeys, blood before and 30, 60, 120, 180 min after administration, 10 μM ADP, FIG. 1. As for the experimental part:
Male crab-eating monkeys (4 to 6 kg) were retained in monkey chairs. After 30 minutes of acclimatization, the compound of Example 1-13 was orally administered to the monkeys using catheters (16 Fr).
Blood was collected via saphenous veins before, and 30, 60, 120 and 180 minutes after administration of drug solutions using a syringe that had previously contained a 3.8% sodium citrate solution in a volume that was one-tenth of that of collected blood.
The collected blood was centrifuged at 1000 rpm for 10 minutes. Upper portions of the resultants were collected as platelet rich plasma (PRP). PRP was apportioned into small test tubes, and 10 μM of ADP was added thereto to induce platelet aggregation. The degree of platelet aggregation was measured as a change in turbidity using an aggregometer (Hematracer 1, Nikobioscience).
Consider `O=C(O)COc1cccc2c1OCCN2CCN(C(=O)c1ccccc1)c1ccc(Br)cc1` [Example 1-13], for which the “inhibitory effect of platelet aggregation after oral administration” value was “strong inhibitory effect of platelet aggregation”.

The next assay concerns human platelet aggregation. The assay is described as follows: Human platelet aggregation inhibitory test (ADP-induced, platelet rich plasma). The class given is cell-based. The note with it: human PRP, 5 μM ADP, compound added 1 minute before ADP, turbidity (aggregometer), read-out: Platelet Aggregation Inhibitory Effect IC50. How it is done:
Blood collected from human median cubital vein was centrifuged at 800 rpm for 10 minutes. Upper portion of the resultant was collected as platelet rich plasma (PRP). PRP was dispensed to small test tubes, and 5 μM of ADP was added thereto to induce platelet aggregation. The degree of platelet aggregation was measured as a change in turbidity using an aggregometer (Hematracer 1, Nikobioscience). Each compound was added 1 minute before ADP addition, and calculation was carried out using as an IC50 value a concentration that inhibits aggregation by 50%.
With `O=C(O)COc1cccc2c1OCCN2CCN(C(=O)C1=CCCCC1)c1ccc(Br)cc1` [Example 2-27], the IC50 is 55 nM.
On the same count and under the same terms, to `Cc1ccc(C(=O)N(CCN2CCOc3c(OCC(=O)O)cccc32)c2ccc(C)cc2)cc1` [Example 1-28] belongs 5.9 nM; to `Cc1ccc(N(CCN2CCOc3c(OCC(=O)O)cccc32)C(=O)c2ccccc2)cc1` [Example 1-16], 5.3 nM; to `O=C(O)COc1cccc2c1OCCN2CCN(C(=O)c1ccccc1)c1ccc(Cl)cc1Cl` [Example 1-49], 18 nM.
On to `CSc1ccc(N(CCN2CCOc3c(OCC(=O)O)cccc32)C(=O)c2ccccc2)cc1` [Example 1-40], for which the IC50 was 14 nM.
The same measure, in the same setting: to `O=C(O)COc1cccc2c1OCCN2CCN(C(=O)c1ccccc1)c1ccc(Cl)cc1` [Example 1-14] belongs 13 nM; to `Cc1ccc(C(=O)N(CCN2CCOc3c(OCC(=O)O)cccc32)c2ccc(Br)cc2)cc1` [Example 2-4], 27 nM; to `O=C(O)COc1cccc2c1OCCN2CCN(C(=O)c1ccccc1)c1ccc(Cl)cc1F` [Example 1-63], 8.8 nM.

The IC50 is the point on the concentration scale where inhibition reaches its midpoint.

The values above are taken from patent US20060040931A1, “Benzomorpholine derivatives” (Toray Industries, Inc., priority 2002, published 2006).
